SMILES strings stand for the structures. Entries after “also recorded” stand apart in the source; their conditions may differ. Like-named read-outs stand apart in the source and are kept apart here.

Consider 5 compounds from patent publication US10316034B2, “Pharmaceutical salt forms of an inhibitor of semicarbazide-sensitive amine oxidase (SSAO)” (BENEVOLENTAI CAMBRIDGE LIMITED, priority 2015, dated 2019).

Holding throughout (assay type): physicochemical
Series [1] in a line: Hygroscopicity on storage at controlled temperature and relative humidity. How it is done:
The four crystalline salts were tested in order to determine their ease of handling, hygroscopicity, and thermal stability. The hydrochloride and phosphate salts have the advantage of improved handling properties over the free base glass/gum by virtue of their crystallinity. […] Both salts deliquesced on overnight storage at 40° C. in an environment having 75% relative humidity.
The mesylate and sulphate salts have the advantage of improved handling properties over the free base gum by virtue of their crystallinity. […] The mesylate salt deliquesced following storage for 3 days at 40° C. in an environment having 75% relative humidity. The sulphate salt was unchanged after storage for 7 days at 40° C. in an environment having 75% relative humidity.

A short description of series [2]: Hygroscopicity during long term storage, assessed by Karl Fisher (KF) titration. The note with it: GMP-type packaging with desiccant. How it is done:
The water content of each sample was measured on a Mettler Toledo DL39 Coulometer using Hydranal Coulomat AG reagent and an argon purge. Weighed solid samples were introduced into the vessel on a platinum TGA pan which was connected to a subaseal to avoid water ingress. Approx 10 mg of sample was used per titration and duplicate determinations were made.
(§1) (3S)-Tetrahydrofuran-3-yl (4S)-4-isopropyl-1,4,6,7-tetrahydro-5H-imidazo[4,5-c]-pyridine-5-carboxylate mesylate was also assessed for stability and hygroscopicity when dispensed in 3 g aliquots in double LDPE liners, sealed with cable tie and placed, with a desiccant pouch into a foil bag, which was subsequently heat-sealed. The foil bag was then placed into an HDPE keg fitted with an HDPE lid. These conditions mirror typical GMP level storage conditions. Stability was assessed by HPLC and hygroscopicity was assessed by Karl Fisher (KF) titration.

Series [3] in a line: Stability during long term storage, assessed by HPLC. The following applies: GMP-type packaging with desiccant. How it is done: Purity analysis was performed on an Agilent HP1100 series system equipped with a diode array detector and using ChemStation software vB.02.01-SR1 using the method detailed below.
as §1

Where [4] appears, read: overnight storage at 40° C., 75% relative humidity.
The mark [5] stands for this setting: after 6 months at 40° C./75% RH.

For the compound `CC(C)[C@H]1c2nc[nH]c2CCN1C(=O)O[C@H]1CCOC1.O.O=S(=O)(O)O` [Sulfate salt (.1.5H2O), (3S)-Tetrahydrofuran-3-yl (4S)-4-isopropyl-1,4,6,7-tetrahydro-5H-imidazo[4,5-c]-pyridine-5-carboxylate sulphate hydrate], the Hygroscopicity result is on record as “unchanged” in series [1] (40° C./75% RH for up to 7 days, listed as sulphate salt, sulphate hydrate) and “No change at 40° C./” in series [1] (40° C./75% RH for up to 7 days, sulphate hydrate).
Turning to `CC(C)[C@H]1c2nc[nH]c2CCN1C(=O)O[C@H]1CCOC1.O=P(O)(O)O` [Phosphate salt, (3S)-Tetrahydrofuran-3-yl (4S)-4-isopropyl-1,4,6,7-tetrahydro-5H-imidazo[4,5-c]-pyridine-5-carboxylate phosphate], the Hygroscopicity result in series [1] (setting [4]) is reported as “deliquesced”. The “Hygroscopicity (in words)” value in series [1] (phosphate) was “somewhat hygroscopic; also recorded: highly hygroscopic”.
Consider `CC(C)[C@H]1c2nc[nH]c2CCN1C(=O)O[C@H]1CCOC1.CS(=O)(=O)O` [Mesylate salt, (3S)-Tetrahydrofuran-3-yl (4S)-4-isopropyl-1,4,6,7-tetrahydro-5H-imidazo[4,5-c]-pyridine-5-carboxylate mesylate], for which, in series [1] (40° C./75% RH after 3 days, listed as mesylate salt, mesylate), the Hygroscopicity entry was “deliquesced”. For the same compound, the “Water uptake (KF)” value is 0.1% in series [2] (setting [5]) and “no water uptake” in series [2] (over 3 years at 25° C./60% RH). Further, the “Degradation (HPLC)” value in series [3] (setting [5]) and in series [3] (over 3 years at 25° C./60% RH) was 0.1% throughout.
On to `CC(C)[C@H]1c2nc[nH]c2CCN1C(=O)O[C@H]1CCOC1.Cl` [Hydrochloride salt, (3S)-Tetrahydrofuran-3-yl (4S)-4-isopropyl-1,4,6,7-tetrahydro-5H-imidazo[4,5-c]-pyridine-5-carboxylate hydrochloride], for which, in series [1] (hydrochloride), the “Hygroscopicity (in words)” value is recorded as “somewhat hygroscopic; also recorded: highly hygroscopic”. Further, in series [1] (setting [4]), the Hygroscopicity entry was “deliquesced”.
As for `CC(C)[C@H]1c2[nH]cnc2CCN1C(=O)O[C@H]1CCOC1` [Free base, (3S)-Tetrahydrofuran-3-yl (4S)-4-isopropyl-1,4,6,7-tetrahydro-5H-imidazo[4,5-c]pyridine-5-carboxylate], in series [1], the “Hygroscopicity (in words)” value is listed as “hygroscopic”.
